# Where two headings read alike, the source gives them in different places. Numbered stars: 1 amine (or outer) side, 2 acyl side, 3 side chain; on linkers, the order of the positions; unused ones are H or OH. Square brackets hold non-standard residues; d marks the D form. Ends that are not written are not given here. Peptide text beside a SMILES is read from it. Eb = biotinyl-PEG-Glu: N-γ-(N-biotinyl-3-(2-(2-(3-aminopropyloxy)-ethoxy)-ethoxy)-propyl)-L-glutamine, O=C(CCCC[C@@H]1SC[C@@H]2NC(=O)N[C@@H]21)NCCCOCCOCCOCCCNC(=O)CC[C@H](N[*:1])C(=O)[*:2]; Ahx = NCCCCCC(=O)O
# Key:
# [1] = test system: PLP/CFA-immunized female SJL/J mice; test: Anaphylaxis incidence after injection of the peptide at later phase of disease; type: in vivo, mouse
# Description: The less incidence of inducing anaphylactic shock by BPI molecules was further examined. Female SJL/J mice were immunized with PLP/CFA as above, and injected intravenously with PLP or BPI molecules (100 nmol/mouse) at later phase of the disease (i.e., between day 28 and day 35). […] This was confirmed in another set of experiment, PLP-BPI induced anaphylaxis to 38.5% of treated mice while PLP caused anaphylaxis to more than 80% of treated mice (Table 9, Experiment II). In addition, 100% of mice that were injected with unlinked mixture of PLP and LABL (100 nmol each) died due to anaphylaxis. […] Taken together, BPI molecules (including PLP-BPI and Ac-PLP-BPI-NH2) could suppress EAE more efficiently with lower incidence of inducing anaphylaxis than PLP.
# [2] = test system: PLP/CFA-immunized mice; test: Anaphylaxis incidence after re-injection of the peptide at day 30
# Description: In this example, the ability of BPI molecules to induce anaphylaxis after multiple injections was investigated.
# [3] = test system: EAE mouse model (SJL/J female mice immunized with PLP/CFA); type: in vivo; conditions: for number of animals that died, Day 10 / number of animals that died, Day 11 / number of animals that died, Day 14 / number of animals that died, Total: 10 mice/group; for toxicity (conclusion from mortality, in words): mouse, in vivo
# Experimental: To evaluate the in vivo activity of these molecules, SJL/J female mice at 6-8 weeks of age (Jackson Laboratory, Bar Harbor, Me.) were divided into six groups with ten mice in each group. At the initiation state (Day 0), all mice (10/group) were immunized by subcutaneous (s.c.) inoculation with 200 μg of PLP in a 0.2 mL emulsion with equal volumes of phosphate buffered saline (“PBS”) and complete Freund's adjuvant (“CFA”) (Difco, Detroit, Mich.). To enhance immunization with antigen, killed Mycobacterium tuberculosis strain H37RA (Difco) was added to the emulsion at a concentration of 4 mg/mL and administered to regions above the shoulder and the flanks. The injection volume was 50 μL at each injection site. In addition, 200 ng of pertussis toxin (List Biological Laboratories, Campbell, Calif.) was injected intraperitoneally (i.p.) on the day of immunization and 48 hours post-immunization. The onset of disease was on day 8 to day 12 post-immunization. Then, each mouse in Groups 1-4 received intravenous (i.v.) injections of 100 nmole/100 μL of the test peptides (PLP-BPI, PLP139-151, OVA-BPI, LABL) on days 4, 7, 10 and 14. Group 5 animals were injected with PBS on days 4, 7, 10 and 14. Group 6 animals received one i.p. injection of 500 μg PLPL,R on day 7.
# All of the immunized mice were scored blindly 5-6 days/week by the same observer. Mean daily clinical scores were calculated by adding the grades of each mouse individually divided by the number of mice in each group. All animals were observed daily and, upon signs of paralysis and weakness, gel food and Napa nectar were provided to the animals to prevent dehydration. Saline was injected (s.c.) if a weight loss of 10% was observed within a 24-hour period. Body weight and disease scoring started at the onset of the disease (day 8). The measurements were continued daily (5 to 6 days/week) until the end of the disease.
# The statistical analyses of the EAE scores and EAE incidence were done using Mann-Whitney U test and Kaplan-Meier analysis, respectively. The comparison was done between the peptide-treated mice (Groups 1, 2, 3, 4, and 6) and the control group (Group 5) at day 14 post-immunization.
# [4] = test system: LS102.9 mouse B-cells; test: Binding of biotin-labeled PLP-BPI to B-cell line, flow cytometry; type: cell-based; conditions: 50 μM, 16 hours at 37° C.; FIG. 11(A)
# Description: (each step was followed by washing×3). […] The results are illustrated in FIG. 11.
# [5] = test system: T-cell-depleted splenocytes isolated from SJL/J female mice (EAE-induced); conditions: 50 μM, 16 hours at 37° C.; FIG. 11(B)
# Description: Binding studies were done using mouse B-lymphocyte line LS102.9 (FIG. 11(A)) and the isolated B-cells from the spleen of female SJL/J mice after induction of EAE (FIG. 11(B)). […] For the isolated spleen cells from EAE mice, the cells were isolated from female SJL/J mice on day 45 post immunization with PLP/CFA, when the clinical disease score for the mice was 0. Lymphocytes were obtained from the spleen cell suspension by centrifugation over Lymphocyte Separation Medium. T-cells were depleted by incubation with anti-CD90 mAb (clone G7) followed by Low-tox rabbit complement. Then, the cells were centrifuged over Lymphocyte Separation Medium to remove dead cells.
# For the binding study, the biotin-labeled peptide (50 μM) was incubated with LS102.9 cells or T-cell-depleted splenocytes (2×10^6 cells) in 0.5% BSA-containing PBS for 16 hours at 37° C., 5% CO2. Following washing×3 with 5% FBS-containing PBS, the cells were incubated with fluorescein Avidin D (15 μg/ml) for 30 min at 4° C. The cells were further stained with biotinylated anti-Avidin D (1 μg/ml) for 60 min at 4° C., and then fluorescein Avidin D (15 μg/ml) for 30 min at 4° C. (each step was followed by washing×3). Finally, the fluorescein intensity of the individual cells was analyzed by flow cytometry.
# [6] = test system: EAE mouse model; test: EAE mouse model, PLP-BPI vs mixture of PLP and LABL and VP2-BPI (Example 4); type: in vivo
# Description: To evaluate whether linking PLP and LABL peptides to give PLP-BPI has a significant role on its immunomodulatory activity, the activity of PLP-BPI was compared with that of a mixture of unlinked PLP and LABL peptides at the same concentration. To answer whether any antigenic peptide such as VP2 peptide that is linked to LABL peptide to give VP2-BPI will have immunomodulatory activity similar to that of PLP-BPI, we evaluated the activity of VP2-BPI in the same experiment. VP274-86 is an epitope peptide of Theiler's encephalomyelitis virus capsid protein VP2, and is known to bind to I-A^s. PBS-treated mice were used as the negative control. The experimental protocol was the same as in the previous study (see FIG. 1). Thus, VP2-BPI was used as a control to example to see if the PLP portion of the PLP-BPI is important to therapeutic activity.
# [7] = Experiment III, 100 nmol/mouse i.v.
# [8] = peptide treatment day 4 (one), re-injection day 30
# [9] = peptide treatment day 4, 7, 10, 14 (four), re-injection day 30
# [10] = Experiment I, 100 nmol/mouse i.v. between day 28 and day 35
# [11] = Experiment II, 100 nmol/mouse i.v. (mixture 100 nmol each)
molecule,measurement,setting,value
"CC[C@H](C)[C@H](NC(=O)CCCCCNC(=O)CNC(=O)CCCCCNC(=O)CNC(=O)CCCCCNC(=O)[C@H](Cc1ccccc1)NC(=O)[C@H](CCCCN)NC(=O)[C@H](CC(=O)O)NC(=O)[C@@H]1CCCN1C(=O)[C@H](Cc1c[nH]cn1)NC(=O)CNC(=O)[C@H](CC(C)C)NC(=O)[C@H](Cc1c[nH]c2ccccc12)NC(=O)[C@H](CCCCN)NC(=O)CNC(=O)[C@H](CC(C)C)NC(=O)[C@H](CO)NC(=O)[C@H](Cc1c[nH]cn1)NC(C)=O)C(=O)N[C@H](C(=O)N[C@@H](CC(=O)O)C(=O)NCC(=O)N[C@@H](CCC(=O)O)C(=O)N[C@@H](C)C(=O)N[C@H](C(=O)N[C@@H](CC(=O)O)C(=O)N[C@@H](CO)C(=O)NCC(N)=O)[C@@H](C)O)[C@@H](C)O [Ac-PLP-BPI-NH2, Ac-HSLGKWLGHPDKF)-AcGAcGAc-ITDGEATDSG-NH2]",Incidence of anaphylaxis,[1]; [7],43.8%
same,Incidence of anaphylaxis (animals/total),[1]; [7],7/16
same,Moribund or death,[2]; [8],2/6
same,Moribund or death,[2]; [9],1/6
"CC[C@H](C)[C@H](N)C(=O)N[C@H](C(=O)N[C@@H](CC(=O)O)C(=O)NCC(=O)N[C@@H](CCC(=O)O)C(=O)N[C@@H](C)C(=O)N[C@H](C(=O)N[C@@H](CC(=O)O)C(=O)N[C@@H](CO)C(=O)NCC(=O)O)[C@@H](C)O)[C@@H](C)O [LABL, ITDGEATDSG]","number of animals that died, Day 10",[3],3
same,"number of animals that died, Day 11",[3],1
same,"number of animals that died, Day 14",[3],0
"CC[C@H](C)[C@H](NC(=O)CCCCCNC(=O)CNC(=O)CCCCCNC(=O)CNC(=O)CCCCCNC(=O)[C@H](C)NC(=O)[C@H](CCC(=O)O)NC(=O)[C@H](CC(N)=O)NC(=O)[C@@H](NC(=O)[C@H](CCC(=O)O)NC(=O)[C@H](C)NC(=O)[C@H](Cc1c[nH]cn1)NC(=O)[C@H](C)NC(=O)[C@H](C)NC(=O)[C@H](Cc1c[nH]cn1)NC(=O)[C@@H](NC(=O)[C@H](C)N)C(C)C)[C@@H](C)CC)C(=O)N[C@H](C(=O)N[C@@H](CC(=O)O)C(=O)NCC(=O)N[C@@H](CCC(=O)O)C(=O)N[C@@H](C)C(=O)N[C@H](C(=O)N[C@@H](CC(=O)O)C(=O)N[C@@H](CO)C(=O)NCC(=O)O)[C@@H](C)O)[C@@H](C)O [OVA-BPI, AVHAAHAEINEA-AcGAcGAc-ITDGEATDSG]","number of animals that died, Day 10",[3],0
same,"number of animals that died, Day 11",[3],0
same,"number of animals that died, Day 14",[3],2
same,"number of animals that died, Total",[3],2
"CC(C)C[C@H](NC(=O)[C@H](Cc1c[nH]c2ccccc12)NC(=O)[C@H](CCCCN)NC(=O)CNC(=O)[C@H](CC(C)C)NC(=O)[C@H](CO)NC(=O)[C@@H](N)Cc1c[nH]cn1)C(=O)NCC(=O)N[C@@H](Cc1c[nH]cn1)C(=O)N1CCC[C@H]1C(=O)N[C@@H](CC(=O)O)C(=O)N[C@@H](CCCCN)C(=O)N[C@@H](Cc1ccccc1)C(=O)O [PLP, HSLGKWLGHPDKF]","number of animals that died, Day 10",[3],0
same,"number of animals that died, Day 11",[3],0
same,"number of animals that died, Day 14",[3],0
same,"number of animals that died, Total",[3],no animals died
same,"number of animals that died, Total",[3]; listed as PLP139-151,0
same,Incidence of anaphylaxis,[1]; [10],75.0%
same,Incidence of anaphylaxis (animals/total),[1]; [10],9/12
same,Incidence of anaphylaxis (animals/total),[1]; [11],11/13
same,Incidence of anaphylaxis,[1]; [7],76.5%
same,Incidence of anaphylaxis (animals/total),[1]; [7],13/17
same,Moribund or death,"[2]; peptide treatment None (PBS) day 4, 7, 10, 14, peptide injection day 30",3/4
"CC[C@H](C)[C@H](NC(=O)CCCCCNC(=O)CNC(=O)CCCCCNC(=O)CNC(=O)CCCCCNC(=O)[C@H](Cc1ccccc1)NC(=O)[C@H](CCCCN)NC(=O)[C@H](CC(=O)O)NC(=O)[C@@H]1CCCN1C(=O)[C@H](Cc1c[nH]cn1)NC(=O)CNC(=O)[C@H](CC(C)C)NC(=O)[C@H](Cc1c[nH]c2ccccc12)NC(=O)[C@H](CCCCN)NC(=O)CNC(=O)[C@H](CC(C)C)NC(=O)[C@H](CO)NC(=O)[C@@H](N)Cc1c[nH]cn1)C(=O)N[C@H](C(=O)N[C@@H](CC(=O)O)C(=O)NCC(=O)N[C@@H](CCC(=O)O)C(=O)N[C@@H](C)C(=O)N[C@H](C(=O)N[C@@H](CC(=O)O)C(=O)N[C@@H](CO)C(=O)NCC(=O)O)[C@@H](C)O)[C@@H](C)O [PLP-BPI, HSLGKWLGHPDKF-AcGAcGAc-ITDGEATDSG]","number of animals that died, Day 10",[3],0
same,"number of animals that died, Day 11",[3],0
same,"number of animals that died, Day 14",[3],0
same,"toxicity (conclusion from mortality, in words)",[3],low toxicity
same,Incidence of anaphylaxis,[1]; [10],35.7%
same,Incidence of anaphylaxis (animals/total),[1]; [10],5/14
same,Incidence of anaphylaxis,[1]; [11],38.5%
same,Incidence of anaphylaxis (animals/total),[1]; [11],5/13
same,Moribund or death,[2]; [8],3/6
same,Moribund or death,[2]; [9],1/6
"CC(C)C[C@H](NC(=O)[C@H](CC(C)C)NC(=O)[C@H](CCCCN)NC(=O)CNC(=O)[C@H](CC(C)C)NC(=O)[C@H](CO)NC(=O)[C@@H](N)Cc1c[nH]cn1)C(=O)NCC(=O)N[C@@H](CCCNC(=N)N)C(=O)N1CCC[C@H]1C(=O)N[C@@H](CC(=O)O)C(=O)N[C@@H](CCCCN)C(=O)N[C@@H](Cc1ccccc1)C(=O)O [PLPL,R, HSLGKLLGRPDKF] (H-HSLGKLLGRPDKF-OH)","number of animals that died, Day 10",[3],0
same,"number of animals that died, Day 11",[3],5
same,"number of animals that died, Day 14",[3],1
same,"toxicity (conclusion from mortality, in words)",[3],severe effect (toxicity)
EbHSLGKWLGHPDKF-AcGAcGAc-ITDGEATDSG ([Eb]HSLGKWLGHPDKF[Ahx]G[Ahx]G[Ahx]ITDGEATDSG) [B-PLP-BPI],binding to LS102.9 B-cell line (in words),[4],binds to LS102.9 B-cell line
same,binding to B-cells from the spleen of EAE-induced mice (in words),[5],can also bind to the B-cells from the spleen of EAE-induced mice
QEAFSHIRIPLPH-AcGAcGAc-ITDGEATDSG (QEAFSHIRIPLPH[Ahx]G[Ahx]G[Ahx]ITDGEATDSG; listed as Homo sapiens) [VP2-BPI],disease incidence,"[6]; after day 17, FIG. 8(B)",100%
same,loss of body weight (in words),"[6]; around day 14, FIG. 8(C)",greatest in PBS-treated mice followed by VP2-BPI-treated mice

# From patent US8188218B2, “Bi-functional peptides for multiple sclerosis treatment and diagnosis” (priority 2006, dated 2012)
